Source: PubChem BioAssay AID2060906 (Molecular Pharmacology Branch, DTP, NCI, 2025)

Test system: 485176-168-R4-J1-PDC complex spheroid growth
Test: Anticancer human tumor 485176-168-R4-J1-PDC patient-derived pancreatic adenocarcinoma cell line growth inhibition [RAS]
Conditions: for viability, T/C: stronger effect = lower value; active = viability on the fitted dose curve at most 10% of control; inactive = the rest
Outline: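 Tumour cells grown as complex spheroids with HUVEC endothelial cells and mesenchymal stem cells, treated with RAS pathway inhibitor combinations. Each agent spans half-log steps from near clinical Cmax, or 10 microM where Cmax is unknown.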

[1] = curve of first compound, second compound 0.000949 µM
[2] = curve of first compound, second compound 0.003 µM
[3] = curve of first compound, second compound 0.00949 µM
[4] = curve of first compound, second compound 0.03 µM
[5] = curve of first compound, second compound 0.0949 µM
[6] = curve of first compound, second compound 0.3 µM
[7] = second compound 0.000949 µM, first compound 0.00316 µM
[8] = second compound 0.000949 µM, first compound 0.01 µM
[9] = second compound 0.000949 µM, first compound 0.0316 µM
[10] = second compound 0.000949 µM, first compound 0.1 µM
[11] = second compound 0.000949 µM, first compound 0.316 µM
[12] = second compound 0.000949 µM, first compound 1 µM
[13] = second compound 0.003 µM, first compound 0.00316 µM
[14] = second compound 0.003 µM, first compound 0.01 µM
[15] = second compound 0.003 µM, first compound 0.0316 µM
[16] = second compound 0.003 µM, first compound 0.1 µM
[17] = second compound 0.003 µM, first compound 0.316 µM
[18] = second compound 0.003 µM, first compound 1 µM
[19] = second compound 0.00949 µM, first compound 0.00316 µM
[20] = second compound 0.00949 µM, first compound 0.01 µM
[21] = second compound 0.00949 µM, first compound 0.0316 µM
[22] = second compound 0.00949 µM, first compound 0.1 µM
[23] = second compound 0.00949 µM, first compound 0.316 µM
[24] = second compound 0.00949 µM, first compound 1 µM
[25] = second compound 0.03 µM, first compound 0.00316 µM
[26] = second compound 0.03 µM, first compound 0.01 µM
[27] = second compound 0.03 µM, first compound 0.0316 µM
[28] = second compound 0.03 µM, first compound 0.1 µM
[29] = second compound 0.03 µM, first compound 0.316 µM
[30] = second compound 0.03 µM, first compound 1 µM
[31] = second compound 0.0949 µM, first compound 0.00316 µM
[32] = second compound 0.0949 µM, first compound 0.01 µM
[33] = second compound 0.0949 µM, first compound 0.0316 µM
[34] = second compound 0.0949 µM, first compound 0.1 µM
[35] = second compound 0.0949 µM, first compound 0.316 µM
[36] = second compound 0.0949 µM, first compound 1 µM
[37] = second compound 0.3 µM, first compound 0.00316 µM
[38] = second compound 0.3 µM, first compound 0.01 µM
[39] = second compound 0.3 µM, first compound 0.0316 µM
[40] = second compound 0.3 µM, first compound 0.1 µM
[41] = second compound 0.3 µM, first compound 0.316 µM
[42] = second compound 0.3 µM, first compound 1 µM
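Also: spheroids exposed to compounds for seven days before readout.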
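For viability, T/C in this document: luminescence viability expressed relative to DMSO vehicle wells set as 100%.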

Nc1ccn(C2OC(CO)C(O)C2(F)F)c(=O)n1 (configuration not stated) + CCn1c(-c2cccnc2C(C)OC)c2c3cc(ccc31)N1CCOC(CC(NC(=O)C(C(C)C)N(C)C(=O)C3(F)CCN(C(=O)C#CC(C)(C)N(C)C)CC3)C(=O)N3CCCC(N3)C(=O)OCC(C)(C)C2)C1
15.6 nM: IC50 [3]
12 nM: IC50 [6]
16.8 nM: IC50 [4]
active: viability, T/C [10] 7.41% | viability, T/C [11] 10.3% | viability, T/C [12] 9.82% | viability, T/C [16] 7.59% | viability, T/C [17] 8.56% | viability, T/C [18] 11.9% | viability, T/C [28] 8.42% | viability, T/C [29] 8.07% | viability, T/C [30] 6.73% | viability, T/C [33] 9.91% | viability, T/C [34] 4.39% | viability, T/C [35] 7.38% | viability, T/C [36] 6.23% | viability, T/C [39] 8.51% | viability, T/C [40] 3.06% | viability, T/C [41] 4.98% | viability, T/C [42] 5.37%
14.1 nM: IC50 [5]
18.4 nM: IC50 [2]
16.7 nM: IC50 [1]
inactive: viability, T/C [7] 76.9% | viability, T/C [8] 79.7% | viability, T/C [9] 15% | viability, T/C [13] 91.1% | viability, T/C [14] 87.6% | viability, T/C [15] 16.5% | viability, T/C [19] 87.6% | viability, T/C [20] 72.9% | viability, T/C [21] 13.3% | viability, T/C [22] 9.05% | viability, T/C [23] 9.37% | viability, T/C [24] 12.1% | viability, T/C [25] 91.4% | viability, T/C [26] 79.9% | viability, T/C [27] 13.5% | viability, T/C [31] 87.8% | viability, T/C [32] 66.9% | viability, T/C [37] 71.7% | viability, T/C [38] 58%

Nc1ccn(C2OC(CO)C(O)C2(F)F)c(=O)n1 (configuration not stated) + CCn1c(-c2cc(N3CCN(C)CC3)cnc2C(C)OC)c2c3cc(ccc31)-c1csc(n1)CC(NC(=O)C1CC1C)C(=O)N1CCCC(N1)C(=O)OCC(C)(C)C2
17 nM: IC50 [1]
18.2 nM: IC50 [3]
19.1 nM: IC50 [6]
12.5 nM: IC50 [4]
17.4 nM: IC50 [2]
inactive: viability, T/C [7] 100% | viability, T/C [8] 73.4% | viability, T/C [9] 23.1% | viability, T/C [10] 9.57% | viability, T/C [11] 11.2% | viability, T/C [12] 11.5% | viability, T/C [13] 94% | viability, T/C [14] 80.6% | viability, T/C [15] 17.1% | viability, T/C [19] 79.7% | viability, T/C [20] 86.2% | viability, T/C [21] 19.7% | viability, T/C [22] 7.74% | viability, T/C [23] 10.7% | viability, T/C [24] 12% | viability, T/C [25] 97.9% | viability, T/C [26] 58.2% | viability, T/C [27] 15.4% | viability, T/C [28] 12.6% | viability, T/C [29] 12.6% | viability, T/C [30] 11.5% | viability, T/C [31] 102% | viability, T/C [32] 63.8% | viability, T/C [33] 20.7% | viability, T/C [34] 9.33% | viability, T/C [37] 73% | viability, T/C [38] 80.2% | viability, T/C [39] 29.2% | viability, T/C [40] 9.97% | viability, T/C [41] 9.95% | viability, T/C [42] 11.2%
active: viability, T/C [16] 6.87% | viability, T/C [17] 8.05% | viability, T/C [18] 13.2% | viability, T/C [35] 11.3% | viability, T/C [36] 7.79%
14.4 nM: IC50 [5]

C#Cc1c(F)ccc2cc(O)cc(-c3ncc4c(N5CC6CCC(C5)N6)nc(OCC56CCCN5CC(F)C6)nc4c3F)c12 (configuration not stated)
inactive: viability, T/C (compound 0.1 µM) 102% [middle of 8 runs] | viability, T/C (compound 0.316 µM) 97.6% [middle of 8 runs] | viability, T/C (compound 1 µM) 94% [middle of 8 runs] | viability, T/C (compound 3.16 µM) 99.5% [middle of 8 runs] | viability, T/C (compound 10 µM) 95.7% [middle of 8 runs]
> 10000 nM: IC50 (compound alone, run of 06/10/2024)

CC1(O)CCCC1n1c(=O)c(C(F)F)cc2cnc(NC3CCN(S(C)(=O)=O)CC3)nc21 (configuration not stated) + CCn1c(-c2cccnc2C(C)OC)c2c3cc(ccc31)N1CCOC(CC(NC(=O)C(C(C)C)N(C)C(=O)C3(F)CCN(C(=O)C#CC(C)(C)N(C)C)CC3)C(=O)N3CCCC(N3)C(=O)OCC(C)(C)C2)C1
3320 nM: IC50 [5]
3390 nM: IC50 [3]
3170 nM: IC50 [2]
inactive: viability, T/C [9] 114% | viability, T/C [10] 75% | viability, T/C [11] 70.6% | viability, T/C [12] 78.2% | viability, T/C (second compound 0.000949 µM, first compound 3.16 µM) 60.8% | viability, T/C [15] 103% | viability, T/C [16] 92.7% | viability, T/C [17] 76.6% | viability, T/C [18] 72.8% | viability, T/C (second compound 0.003 µM, first compound 3.16 µM) 57% | viability, T/C [21] 90.4% | viability, T/C [22] 74.7% | viability, T/C [23] 60.6% | viability, T/C [24] 69.8% | viability, T/C (second compound 0.00949 µM, first compound 3.16 µM) 57% | viability, T/C [27] 110% | viability, T/C [28] 78.7% | viability, T/C [29] 87.2% | viability, T/C [30] 65.9% | viability, T/C (second compound 0.03 µM, first compound 3.16 µM) 63.5% | viability, T/C [33] 89.2% | viability, T/C [34] 76.2% | viability, T/C [35] 69.6% | viability, T/C [36] 68.1% | viability, T/C (second compound 0.0949 µM, first compound 3.16 µM) 56.1% | viability, T/C [39] 78.7% | viability, T/C [40] 70.5% | viability, T/C [41] 58.1% | viability, T/C [42] 54.6% | viability, T/C (second compound 0.3 µM, first compound 3.16 µM) 47.8%
3410 nM: IC50 [1]
active: viability, T/C (second compound 0.000949 µM, first compound 10 µM) 4.58% | viability, T/C (second compound 0.003 µM, first compound 10 µM) 3.48% | viability, T/C (second compound 0.00949 µM, first compound 10 µM) 3.15% | viability, T/C (second compound 0.03 µM, first compound 10 µM) 2.51% | viability, T/C (second compound 0.0949 µM, first compound 10 µM) 2.02% | viability, T/C (second compound 0.3 µM, first compound 10 µM) 3.3%
3310 nM: IC50 [4]
1680 nM: IC50 [6]
